Assay results published in article PMC9668928, “Zandelisib (ME-401) in Japanese patients with relapsed or refractory indolent non-Hodgkin’s lymphoma: an open-label, multicenter, dose-escalation phase 1 study” (International Journal of Hematology, 2022).
“And” between values parts separate entries of the source, which are not always exact repeats. Equal values may be shown once. “Also recorded” adds a separate entry of the source. Marks after values point to notes of the source that are not given here.

Assays:
[1] = Phase 1 study: plasma pharmacokinetics, non-compartmental analysis; assay type: in vivo, human; details: for pre-dose concentration, mean ± SD: 60 mg daily; for median tmax: after single and multiple doses
Excerpt: The primary endpoint was the safety [number of patients with treatment-emergent adverse events (TEAEs), based on Common Terminology Criteria for Adverse Events version 5.0] and tolerability (including laboratory values, vital signs, and electrocardiogram performance) of zandelisib in Japanese patients. Hepatobiliary disorder, aspartate/alanine (AST/ALT) increased, diarrhea/colitis, organizing pneumonia, stomatitis, or rash were defined as irAEs in this manuscript. Secondary endpoints included PK (plasma concentrations and PK parameters) and the efficacy of zandelisib. Blood samples for PK evaluation were collected at pre-dose, 1.5, 3, 5, 8, 10, 12 (optional), and 24 h post-dose on Cycle 1 day 1 and Cycle 2 day 1, and at pre-dose on Cycle 1 days 8, 15, and 22. The PK parameters for Cycle 1 day 1 and Cycle 2 day 1 were calculated for each patient by non-compartmental analysis. PK parameters included maximum plasma drug concentration (Cmax), area under the plasma concentration–time curve (AUC) from time zero to the last measurable point (AUC0–t), the AUC from time zero to infinity (AUC0-inf), and terminal half-life (t1/2).

[2] = test system: relapsed/refractory indolent non-Hodgkin's lymphoma (R/R iNHL); experiment: Phase 1 study: anti-tumor efficacy, investigator-assessed, modified Lugano criteria; assay type: in vivo, human
Method: Efficacy endpoints included ORR; duration of response (DOR); progression-free survival (PFS); time to first response (TTR); and change in tumor size from baseline. Response was assessed by investigators based on the modified Lugano Classification lymphoma response criteria (modified Lugano criteria). If complete response (CR) was achieved by CT- or MRI-based assessment (not including bone marrow biopsy), PET/CT was performed to assess metabolic response (except for patients whose FDG-avidity was “non-avid” in the screening test). Additionally, a bone marrow biopsy was also performed if complete metabolic response was confirmed by PET/CT-based assessment. For efficacy outcomes, the Clopper–Pearson method was used to obtain 95% confidence intervals (CIs) for ORR. The Kaplan–Meier method was used to estimate the DOR and PFS for each cohort and overall. Statistical analyses were performed using SAS® software version 9.4 (SAS Institute Inc., Cary, NC, USA).

PI3Kδ signaling pathway = test system: PI3Kδ signaling pathway; parameters: method as in PMID 21378270, PMID 21803855, PMID 20959606, PMID 31506873; details: read-out: half maximal inhibitory concentration [IC50]; cited from earlier work
PI3Kδ = test system: PI3Kδ; parameters: method as in PMID 21378270, PMID 21803855, PMID 20959606, PMID 31506873; details: cited from earlier work
basophil activation = test system: basophil activation; parameters: method as in PMID 30458930; details: 60 mg/day; cited from earlier work
[3] = test system: patients with B-cell malignancies; details: phase 1b; cited from earlier work
[4] = N = 9, median follow-up 17.5 months

CN1CCC(c2ccccc2CC(C)(C)Nc2nc(N3CCOCC3)nc(-n3c(C(F)F)nc4ccccc43)n2)CC1 [zandelisib]
AUC0–inf, mean ± SD ([1]; 45 mg, Cycle 1 day 1, n = 2): 479 ± 112^c ng h/mL | t1/2, mean ± SD ([1]; 45 mg, Cycle 1 day 1, n = 2): 12.5 ± 0.8^c h | AUC0–t (24 h), mean ± SD ([1]; 45 mg, Cycle 1 day 1, n = 3): 304 ± 90 ng·h/mL | Cmax, mean ± SD ([1]; 45 mg, Cycle 1 day 1, n = 3): 27.5 ± 11.0 ng/mL | tmax, median (min–max) ([1]; 45 mg, Cycle 1 day 1, n = 3): 3.00 (2.88–9.53) h | t1/2, mean ± SD ([1]; 45 mg, Cycle 2 day 1, n = 2): 32.5 ± 10.3^c h | AUC0–t (24 h), mean ± SD ([1]; 45 mg, Cycle 2 day 1, n = 3): 601 ± 171 ng·h/mL | Cmax, mean ± SD ([1]; 45 mg, Cycle 2 day 1, n = 3): 46.4 ± 6.2 ng/mL | tmax, median (min–max) ([1]; 45 mg, Cycle 2 day 1, n = 3): 3.08 (2.95–7.98) h | pre-dose concentration, mean ± SD ([1]; Cycle 1 Day 8): 25.2 ± 8.2 ng/mL | pre-dose concentration, mean ± SD ([1]; Cycle 1 Day 15): 26.1 ± 9.6 ng/mL | pre-dose concentration, mean ± SD ([1]; Cycle 1 Day 22): 28.2 ± 9.5 ng/mL | pre-dose concentration, mean ± SD ([1]; Cycle 2 Day 1): 26.2 ± 13.1 ng/mL | AUC0–inf, mean ± SD ([1]; 60 mg, Cycle 1 day 1, n = 6): 731 ± 331 ng·h/mL | AUC0–t (24 h), mean ± SD ([1]; 60 mg, Cycle 1 day 1, n = 6): 435 ± 161 ng·h/mL | Cmax, mean ± SD ([1]; 60 mg, Cycle 1 day 1, n = 6): 36.6 ± 13.2 ng/mL | t1/2, mean ± SD ([1]; 60 mg, Cycle 1 day 1, n = 6): 16.4 ± 3.9 h | tmax, median (min–max) ([1]; 60 mg, Cycle 1 day 1, n = 6): 3.94 (3.00–7.83) h | t1/2, mean ± SD ([1]; 60 mg, Cycle 2 day 1, n = 5): 23.5 ± 10.9^d h | AUC0–t (24 h), mean ± SD ([1]; 60 mg, Cycle 2 day 1, n = 6): 974 ± 339 ng·h/mL | Cmax, mean ± SD ([1]; 60 mg, Cycle 2 day 1, n = 6): 62.8 ± 19.4 ng/mL | tmax, median (min–max) ([1]; 60 mg, Cycle 2 day 1, n = 6): 4.96 (2.83–8.00) h | dose proportionality of exposure (Cmax and AUC) ([1]; 45 and 60 mg): generally dose proportional up to 60 mg/day | exposures (Cmax and AUC) on Cycle 2 Day 1 versus Cycle 1 Day 1 ([1]; 45 and 60 mg): 1.5–2 fold | median tmax ([1]; 45 mg): 3 h | median tmax ([1]; 60 mg): ~ 4.96 h | time to PK steady state ([1]; daily dosing): PK reached steady state by Day 8; also recorded: reached steady state following 7 days of dosing | median PFS ([2]; 45 mg group): 11.1 months | Best overall response: Complete response ([2]; 45 mg, n = 3): 0 (0.0) n (%) | Best overall response: Partial response ([2]; 45 mg, n = 3): 3 (100.0) n (%) | Best overall response: Progressive disease ([2]; 45 mg, n = 3): 0 n (%) | Best overall response: Stable disease ([2]; 45 mg, n = 3): 0 n (%) | Objective response rate, % (95% CI) ([2]; 45 mg, n = 3): 100.0 (29.2–100.0) % | median DOR ([2]; 60 mg group): 11.3 months | median PFS ([2]; 60 mg group): 13.3 months | Best overall response: Complete response ([2]; 60 mg, n = 6): 2 (33.3) n (%) | Best overall response: Partial response ([2]; 60 mg, n = 6): 4 (66.7) n (%) | Best overall response: Progressive disease ([2]; 60 mg, n = 6): 0 n (%) | Best overall response: Stable disease ([2]; 60 mg, n = 6): 0 n (%) | Objective response rate, % (95% CI) ([2]; 60 mg, n = 6): 100.0 (54.1–100.0) % | median duration of response (DOR) [2, 4]: 7.9 months and 7.9 (95% CI 2.8–14.7) months | median progression-free survival (PFS) [2, 4]: 11.1 months and 11.1 (95% CI 4.6–16.7) months | median time to response (TTR) [2, 4]: 1.9 months and 1.9 (95% CI 1.8–2.1) months | complete response (CR) rate ([2]; N = 9, 2 FL patients receiving 60 mg/day): 22.2% and 22% | Best overall response: Complete response ([2]; Total, N = 9): 2 (22.2) n (%) | Best overall response: Partial response ([2]; Total, N = 9): 7 (77.8) n (%) | Best overall response: Progressive disease ([2]; Total, N = 9): 0 n (%) | Best overall response: Stable disease ([2]; Total, N = 9): 0 n (%) | Objective response rate, % (95% CI) ([2]; Total, N = 9): 100.0 (66.4–100.0) % | patients achieved response at week 8 ([2]; after 2 administration cycles): 8/9 | decrease from baseline in the sum of perpendicular diameters ([2]; all patients, N = 9): > 50% | best overall response of partial response (PR) ([2]; cohort 1, 45 mg): 3/3 | best overall response of CR ([2]; cohort 2, 60 mg): 2/6 | best overall response of PR ([2]; cohort 2, 60 mg): 4/6 | patients regained response after switching back from IDT to CS ([2]; of patients switched back to CS after PD): 2/4 | IC50 (PI3Kδ signaling pathway): 600 pM | target binding (PI3Kδ): > 5 h | target inhibition at trough plasma concentrations (basophil activation): ≥ 90% | dose-limiting toxicities (DLTs) [3]: No dose-limiting toxicities (DLTs) were reported | maximum tolerated dose (MTD) [3]: not reached | objective response rate (ORR) [3]: 79% | recommended phase 2 dose (RP2D) [3]: 60 mg/day
